In general, IC50 refers to the concentration at which inhibition is half-maximal.

Counter-ions that a name gives are not always drawn.

IC50 data for 19 molecules are collected here from patent publication US11180474B2 (BRISTOL-MYERS SQUIBB COMPANY, priority 2016, dated 2021).

One experiment deals with T1, human TLR9 (Homo sapiens, UniProt Q9NR96).
T1 construct: host or cells: HEK-Blue cells
T1 sequence (Q9NR96 26-1032): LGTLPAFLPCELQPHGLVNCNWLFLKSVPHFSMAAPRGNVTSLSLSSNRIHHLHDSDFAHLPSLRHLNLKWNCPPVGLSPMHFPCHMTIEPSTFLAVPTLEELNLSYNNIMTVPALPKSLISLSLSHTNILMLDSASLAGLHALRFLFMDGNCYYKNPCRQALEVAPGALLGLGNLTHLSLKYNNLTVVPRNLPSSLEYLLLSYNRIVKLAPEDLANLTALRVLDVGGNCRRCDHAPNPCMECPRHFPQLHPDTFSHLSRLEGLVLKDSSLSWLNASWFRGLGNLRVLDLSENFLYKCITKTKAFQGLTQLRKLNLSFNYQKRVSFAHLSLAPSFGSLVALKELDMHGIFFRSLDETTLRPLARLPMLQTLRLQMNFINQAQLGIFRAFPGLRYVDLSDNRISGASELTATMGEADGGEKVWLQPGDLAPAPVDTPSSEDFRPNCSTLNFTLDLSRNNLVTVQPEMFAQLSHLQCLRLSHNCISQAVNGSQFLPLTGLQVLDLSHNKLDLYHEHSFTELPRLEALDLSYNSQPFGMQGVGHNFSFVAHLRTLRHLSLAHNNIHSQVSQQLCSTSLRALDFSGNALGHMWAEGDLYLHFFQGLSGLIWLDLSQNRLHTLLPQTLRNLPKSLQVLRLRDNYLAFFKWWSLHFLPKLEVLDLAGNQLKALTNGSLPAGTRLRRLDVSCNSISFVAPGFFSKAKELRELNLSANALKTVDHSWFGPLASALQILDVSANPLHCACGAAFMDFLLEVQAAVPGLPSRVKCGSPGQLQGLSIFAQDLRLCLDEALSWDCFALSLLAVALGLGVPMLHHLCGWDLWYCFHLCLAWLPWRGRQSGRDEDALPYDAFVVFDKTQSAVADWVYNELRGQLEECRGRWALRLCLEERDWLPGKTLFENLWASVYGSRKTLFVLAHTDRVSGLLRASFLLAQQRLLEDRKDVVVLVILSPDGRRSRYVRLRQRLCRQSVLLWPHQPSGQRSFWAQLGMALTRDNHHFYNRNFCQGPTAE
The experiment in a line: TLR9 inhibition reporter assay (HEK-Blue cells, SEAP reporter, ODN2006 stimulation). It is filed as cell-based. The conditions noted are these: HEK-Blue cells overexpressing human TLR9, ODN2006 5 nM. The procedure, abridged:
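Agonists used: gardiquimod 7.5 μM (TLR7), R848 15.9 μM (TLR8), ODN2006 5 nM (TLR9), added after 30 min room-temperature compound pre-treatment (0.05 nM–50 μM) of receptor-overexpressing HEK-Blue cells. SEAP reporter (NF-κB/AP-1 driven) read after 22 h at 37 °C; inhibition scaled between agonist+DMSO and reference-inhibitor wells.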
In general terms: In a reporter assay the amount or activity of a reporter protein is the signal.

Another experiment concerns the target T2, human TLR7 (Homo sapiens, UniProt Q9NYK1).
T2 construct: host or cells: HEK-Blue cells
T2 sequence (Q9NYK1 27-1049): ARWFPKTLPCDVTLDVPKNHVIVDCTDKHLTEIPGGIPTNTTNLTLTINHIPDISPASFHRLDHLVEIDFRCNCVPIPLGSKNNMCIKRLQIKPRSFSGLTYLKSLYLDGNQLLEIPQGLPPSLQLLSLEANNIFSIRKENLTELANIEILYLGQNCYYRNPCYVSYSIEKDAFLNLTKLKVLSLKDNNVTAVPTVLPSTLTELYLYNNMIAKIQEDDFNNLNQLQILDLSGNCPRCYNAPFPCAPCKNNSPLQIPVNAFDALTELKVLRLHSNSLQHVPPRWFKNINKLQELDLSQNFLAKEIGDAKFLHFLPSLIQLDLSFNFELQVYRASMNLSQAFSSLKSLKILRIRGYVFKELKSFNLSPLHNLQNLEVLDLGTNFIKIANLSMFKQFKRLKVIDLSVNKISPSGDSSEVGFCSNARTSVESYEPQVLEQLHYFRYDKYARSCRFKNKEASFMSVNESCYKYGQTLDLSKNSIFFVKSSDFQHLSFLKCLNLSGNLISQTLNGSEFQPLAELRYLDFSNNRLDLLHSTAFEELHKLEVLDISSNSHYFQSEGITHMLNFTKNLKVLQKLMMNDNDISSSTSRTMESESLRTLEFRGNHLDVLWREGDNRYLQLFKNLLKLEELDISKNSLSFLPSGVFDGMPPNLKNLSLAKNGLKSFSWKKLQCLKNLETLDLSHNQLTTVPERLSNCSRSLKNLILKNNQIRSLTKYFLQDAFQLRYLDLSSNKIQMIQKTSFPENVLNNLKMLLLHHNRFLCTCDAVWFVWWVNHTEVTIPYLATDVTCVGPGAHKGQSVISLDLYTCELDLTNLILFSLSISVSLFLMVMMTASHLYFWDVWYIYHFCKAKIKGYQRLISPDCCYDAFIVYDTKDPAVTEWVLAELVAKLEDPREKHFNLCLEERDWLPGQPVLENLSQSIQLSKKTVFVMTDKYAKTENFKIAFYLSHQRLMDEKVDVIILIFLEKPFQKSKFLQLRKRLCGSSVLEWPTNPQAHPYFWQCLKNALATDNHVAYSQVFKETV
The experiment in a line: TLR7 inhibition reporter assay (HEK-Blue cells, SEAP reporter, gardiquimod stimulation). It counts as cell-based. To be noted: HEK-Blue cells overexpressing human TLR7, gardiquimod 7.5 μM. The procedure, abridged:
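HEK-Blue reporter cells (15,000/well TLR7, 20,000 TLR8) exposed to compound over 0.05 nM–50 μM, agonist-stimulated (R848 for TLR8, gardiquimod for TLR7), 22 h at 37 °C, 5% CO2. SEAP read with HEK-Blue Detection; % inhibition relative to agonist-plus-DMSO and known-inhibitor controls.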

On to `CCc1c(-c2ccc(OC)c(OC)c2)[nH]c2ccc(C3CCN(C(=O)CN(C)C)CC3)cc12` [Example 181, 1-(4-(2-(3,4-dimethoxyphenyl)-3-ethyl-1H-indol-5-yl)piperidin-1-yl)-2-(dimethylamino) ethanone], for which the results for the concentration for half-maximal inhibition (IC50) at human TLR9 and against human TLR7 were 2270 nM and 52 nM, respectively.
Take `CCc1c(-c2ccc(OC)c(OC)c2)[nH]c2ccc(C3CCNCC3)cc12` [Example 122, 2-(3,4-dimethoxyphenyl)-3-ethyl-5-(piperidin-4-yl)-1H-indole]: the IC50 against human TLR9 stood at 1410 nM; against human TLR7, 57 nM.
With `CCc1c(-c2ccc(OC)c(OC)c2)[nH]c2ccc(C3CCN(C4CCN(Cc5ccc(C)s5)CC4)CC3)cc12` [Example 140, 2-(3,4-dimethoxyphenyl)-3-ethyl-5-(1′-((5-methylthiophen-2-yl)methyl)-[1,4′-bipiperidin]-4-yl)-1H-indole], the half-maximal inhibitory concentration (IC50) came out at 479 nM against human TLR9 and 1020 nM against human TLR7.
Turning to `COc1ccc(-c2[nH]c3ccc(C4CCN(C5CCN(C)CC5)CC4)cc3c2C(C)C)cc1OC` [Example 200, 2-(3,4-dimethoxyphenyl)-3-isopropyl-5-(1′-methyl-[1,4′-bipiperidin]-4-yl)-1H-indole], the values for the IC50 on human TLR9 and on human TLR7 were 1260 nM and 101 nM, respectively.
The corresponding values for `CCc1c(-c2ccc(OC)c(OC)c2)[nH]c2c(F)cc(C3CCNCC3)cc12` [Example 189, 2-(3,4-dimethoxyphenyl)-3-ethyl-7-fluoro-5-(piperidin-4-yl)-1H-indole] are 1150 nM and 430 nM.
On to `COc1ccc(-c2[nH]c3ccc(C4CCN(C(=O)CNCC(C)(C)CO)CC4)cc3c2C(C)C)cc1OC` [Example 219, 1-(4-(2-(3,4-dimethoxyphenyl)-3-isopropyl-1H-indol-5-yl)piperidin-1-yl)-2-((3-hydroxy-2,2-dimethylpropyl)amino)ethan-1-one], for which the figures for the IC50 against human TLR9 and against human TLR7 were 2100 nM and 33 nM, respectively.
Regarding `CNCCN1CCC(c2cc3c(C(C)C)c(-c4ccc(OC)c(OC)c4)[nH]c3cc2C)CC1` [Example 207, 2-(4-(2-(3,4-dimethoxyphenyl)-3-isopropyl-6-methyl-1H-indol-5-yl)piperidin-1-yl)-N-methylethan-1-amine], the IC50 was found to be 2290 nM against human TLR9 and 7300 nM against human TLR7.
As for `CCc1c(-c2ccc(OC)c(OC)c2)[nH]c2ccc(C3CCN(C(=O)CNc4nccs4)CC3)cc12` [Example 177, 1-(4-(2-(3,4-dimethoxyphenyl)-3-ethyl-1H-indol-5-yl)piperidin-1-yl)-2-(thiazol-2-ylamino)ethanone], the results for the IC50 on human TLR9 and at human TLR7 were 3360 nM and 121 nM, respectively.
Regarding `CCc1c(-c2ccc(OC)c(OC)c2)[nH]c2ccc(C3CCN(C(=O)C4(C)CCNCC4)CC3)cc12` [Example 187, (4-(2-(3,4-dimethoxyphenyl)-3-ethyl-1H-indol-5-yl)piperidin-1-yl)(4-methylpiperidin-4-yl)methanone], the IC50 against human TLR9 came to 1280 nM; on human TLR7 it was 167 nM.
As for `COc1ccc(-c2[nH]c3ccc(C4CCN(C5CCN(CC(C)C)CC5)CC4)cc3c2C)cc1OC` [Example 6, 2-(3,4-dimethoxyphenyl)-5-(1′-isobutyl-[1,4′-bipiperidin]-4-yl)-3-methyl-1H-indole], the results for the IC50 against human TLR9 and against human TLR7 were 221 nM and 1230 nM, respectively.
For `COc1ccc(-c2[nH]c3ccc(C4CCNCC4)cc3c2C(C)C)cc1OC` [Example 194, 2-(3,4-dimethoxyphenyl)-3-isopropyl-5-(piperidin-4-yl)-1H-indole hydrochloride], the half-maximal inhibitory concentration (IC50) against human TLR9 was 5010 nM; against human TLR7, 73 nM.
On to `CCc1c(-c2ccc(OC)c(OC)c2)[nH]c2ccc(C3CCN(C4CCN(Cc5cc6ccccc6[nH]5)CC4)CC3)cc12` [Example 128, 5-(1′-((1H-indol-2-yl)methyl)-[1,4′-bipiperidin]-4-yl)-2-(3,4-dimethoxyphenyl)-3-ethyl-1H-indole], for which the IC50 came to 947 nM on human TLR9 and 3280 nM at human TLR7.
Turning to `COc1ccc(-c2[nH]c3cc(C)c(C4CCN(C5CCN(C(C)C)CC5)CC4)cc3c2C(C)C)cc1OC` [Example 206, 2-(3,4-dimethoxyphenyl)-3-isopropyl-5-(1′-isopropyl-[1,4′-bipiperidin]-4-yl)-6-methyl-1H-indole di trifluoroacetic acid], the IC50 was 1000 nM at human TLR9 and 3570 nM against human TLR7.
For the molecule `CCc1c(-c2ccc(OC)c(OC)c2)[nH]c2ccc(C3CCN(C(=O)C4CCNCC4)CC3)cc12` [Example 186, (4-(2-(3,4-dimethoxyphenyl)-3-ethyl-1H-indol-5-yl)piperidin-1-yl)(piperidin-4-yl) methanone], the figures for the IC50 on human TLR9 and against human TLR7 were 991 nM and 96 nM, respectively.
In the case of `CCOC(=O)c1c(C)[nH]c(CN2CCC(N3CCC(c4ccc5[nH]c(-c6ccc(OC)c(OC)c6)c(CC)c5c4)CC3)CC2)c1C` [Example 127, ethyl 5-((4-(2-(3,4-dimethoxyphenyl)-3-ethyl-1H-indol-5-yl)-[1,4′-bipiperidin]-1′-yl)methyl)-2,4-dimethyl-1H-pyrrole-3-carboxylate], the IC50 turned out to be 267 nM against human TLR9 and 1620 nM against human TLR7.
On to `CCc1c(-c2ccc(OC)c(OC)c2)[nH]c2c(F)cc(C3CCN(CCNC)CC3)cc12` [Example 191, 2-(4-(2-(3,4-dimethoxyphenyl)-3-ethyl-7-fluoro-1H-indol-5-yl)piperidin-1-yl)-N-methylethan-1-amine], for which the IC50 came to 1220 nM on human TLR9 and 1190 nM on human TLR7.
For `COc1ccc(-c2[nH]c3ccc(C4CCN(C5CCN(CC(C)C)CC5)CC4)cc3c2C(C)C)cc1OC` [Example 199, 2-(3,4-dimethoxyphenyl)-5-(1′-isobutyl-[1,4′-bipiperidin]-4-yl)-3-isopropyl-1H-indole], the IC50 at human TLR9 stood at 257 nM; against human TLR7 it was 120 nM.
Turning to `CCc1c(-c2ccc(OC)c(OC)c2)[nH]c2ccc(C3CCN(C(=O)CN4CCCC(C(=O)N(CC)CC)C4)CC3)cc12` (single isomer, unassigned) [Example 179, 1-(2-(4-(2-(3,4-dimethoxyphenyl)-3-ethyl-1H-indol-5-yl)piperidin-1-yl)-2-oxoethyl)-N,N-diethylpiperidine-3-carboxamide], the half-maximal inhibitory concentration (IC50) was found to be 747 nM at human TLR9 and 280 nM against human TLR7.
As for `CNCCN1CCC(c2cc3c(C(C)C)c(-c4ccc(OC)c(OC)c4)[nH]c3cc2F)CC1` [Example 208, 2-(4-(2-(3,4-dimethoxyphenyl)-6-fluoro-3-isopropyl-1H-indol-5-yl)piperidin-1-yl)-N-methylethan-1-amine], the IC50 was found to be 374 nM against human TLR9 and 9 nM on human TLR7.
